pIC50: −log10 of the molar value.
Molecular target: T1, human M1 receptor (Homo sapiens, UniProt P11229)
T1 sequence (P11229 1-460): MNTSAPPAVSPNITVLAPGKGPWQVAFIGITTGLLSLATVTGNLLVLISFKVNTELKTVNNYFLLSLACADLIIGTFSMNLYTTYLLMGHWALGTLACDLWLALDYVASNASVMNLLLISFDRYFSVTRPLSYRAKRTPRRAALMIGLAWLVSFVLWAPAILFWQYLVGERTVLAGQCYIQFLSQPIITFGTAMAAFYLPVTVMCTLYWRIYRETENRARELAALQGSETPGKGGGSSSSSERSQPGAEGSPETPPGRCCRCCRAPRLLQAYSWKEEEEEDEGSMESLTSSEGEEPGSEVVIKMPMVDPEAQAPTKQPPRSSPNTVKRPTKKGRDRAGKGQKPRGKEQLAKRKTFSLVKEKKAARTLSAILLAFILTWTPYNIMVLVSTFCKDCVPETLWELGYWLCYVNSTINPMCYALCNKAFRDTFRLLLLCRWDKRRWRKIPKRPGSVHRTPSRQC
Assay: In vitro functional assay of muscarinic acetylcholine receptor activity (aequorin calcium flux, reversal of EC80 acetylcholine response)
Assay type: cell-based
Conditions: CHO-K1 cells stably expressing human M1 receptor with aequorin; acetylcholine at EC80; calcium flux (luminescence); read-out: M1 IC50
Method in brief: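 Antagonist mode: compound (final 0.1% DMSO) and coelenterazine-loaded M1/aequorin CHO-K1 cells incubated 30 min in the dark before EC80 acetylcholine addition. Calcium flash integrated as 40 s luminescence AUC; IC50 derived from dose-response curves.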

| Structure (SMILES) | pIC50 |
| --- | --- |
| N#Cc1ccc(N2C3CCC2CN(C(=O)COC2(c4ccc(F)c(F)c4)CC2)C3)nn1 [Example 280, 6-(3-(2-(1-(3,4-difluorophenyl)cyclopropoxy)acetyl)-3,8-diazabicyclo[3.2.1]octan-8-yl)pyridazine-3-carbonitrile] | 6.00 to 7.00 |
| N#Cc1ccc(N2[C@@H]3CC[C@H]2CN(C(=O)CCNC2(c4cccc(F)c4)CC2)C3)nc1 [Example 4, 6-(3-(3-((1-(3-fluorophenyl)cyclopropyl)amino)propanoyl)-3,8-diazabicyclo[3.2.1]octan-8-yl)nicotinonitrile] | 7.00 to 8.00 |
| CC(c1ccccc1Br)[S+]([O-])CCC(=O)N1CC2CCC(C1)N2c1ccc(C#N)cn1 (racemic) [Example 171, 6-(3-(3-((1-(2-bromophenyl)ethyl)sulflnyl)propanoyl)-3,8-diazabicyclo[3.2.1]octan-8-yl) nicotinonitrile] | < 6.00 |
| N#Cc1ccc(N2C[C@@H]3CC[C@H]2CN3C(=O)COC2(c3ccc(F)c(F)c3)CC2)nc1 [Example 283, 6-((1S,4S)-5-(2-(1-(3,4-difluorophenyl)cyclopropoxy)acetyl)-2,5-diazabicyclo[2.2.2]octan-2-yl)nicotinonitrile] | 6.00 to 7.00 |
| N#Cc1ccc(N2C3CCC2CN(C(=O)COC2(c4cc(F)ccn4)CCC2)C3)nc1 [Example 248, 6-(3-(2-(1-(4-fluoropyridin-2-yl)cyclobutoxy)acetyl)-3,8-diazabicyclo[3.2.1]octan-8-yl)nicotinonitrile] | 6.00 to 7.00 |
| N#Cc1ccc(N2[C@@H]3CC[C@H]2CN(C(=O)CCNC2(c4ccc(Cl)c(F)c4)CC2)C3)nc1 [Example 34, 6-(3-(3-((1-(4-chloro-3-fluorophenyl)cyclopropyl)amino)propanoyl)-3,8-diazabicyclo[3.2.1]octan-8-yl)nicotinonitrile] | > 8.00 |
| COc1ccc2c(c1)C(C)N(CC(=O)N1CC3CCC(C1)N3c1ccc(C#N)cn1)CC2 (racemic) [Example 120, 6-(3-(2-(7-methoxy-1-methyl-3,4-dihydroisoquinolin-2(1H)-yl)acetyl)-3,8-diazabicyclo[3.2.1]octan-8-yl)nicotinonitrile] | 5.00 to 6.00 |
| COc1cncc(C(OCC(=O)N2CC3CCC(C2)N3c2ccc(C#N)cn2)C(F)F)c1 (racemic) [Example 202, 6-(3-(2-(2,2-difluoro-1-(5-methoxypyridin-3-yl)ethoxy)acetyl)-3,8-diazabicyclo[3.2.1]octan-8-yl)nicotinonitrile] | > 8.00 |
| N#Cc1ccc(N2C3CCC2CN(C(=O)CN2CCC2c2ccc(F)cc2)C3)nc1 (racemic) [Example 104] | < 6.00 |
| N#Cc1cnc(N2[C@@H]3CC[C@H]2CN(C(=O)CCNC2(c4ccc(F)c(F)c4)CC2)C3)nc1 [Example 44, 2-(3-(3-((1-(3,4-difluorophenyl)cyclopropyl)amino)propanoyl)-3,8-diazabicyclo[3.2.1]octan-8-yl)pyrimidine-5-carbonitrile] | 6.00 to 7.00 |
| CC(c1ccccc1)[S+]([O-])CC(=O)N1CC2CCC(C1)N2c1ccc(C#N)cn1 (racemic) [Example 168, 6-(3-(2-((1-phenylethyl)sulfinyl)acetyl)-3,8-diazabicyclo[3.2.1]octan-8-yl)nicotinonitrile] | 5.00 to 6.00 |
| N#Cc1ccc(N2C3CCC2CN(C(=O)COC(c2ccc(F)c(F)c2)C2CC2)C3)nc1 (racemic) [Example 194, 6-(3-(2-(cyclopropyl(3,4-difluorophenyl)methoxy)acetyl)-3,8-diazabicyclo[3.2.1]octan-8-yl)nicotinonitrile] | 6.00 to 7.00 |
| N#Cc1ccc(N2C3CCC2CN(C(=O)CNC2(c4ccc(F)cc4)CC2)C3)nc1 [Example 96, 6-(3-((1-(4-fluorophenyl)cyclopropyl)glycyl)-3,8-diaabicyclo[3.2.1]octan-8-yl)nicotinonitrile] | 6.00 to 7.00 |
| COc1cc(C(C)NCC(=O)N2CC3CCC(C2)N3c2ccc(C#N)cn2)ccc1F (racemic) [Example 57, 6-(3-((1-(4-fluoro-3-methoxyphenyl)ethyl)glycyl)-3,8-diazabicyclo[3.2.1]octan-8-yl)nicotinonitrile] | > 8.00 |
| N#Cc1ccc(N2C3CCC2CN(C(=O)C2CC(O)(c4cccc5ncccc45)C2)C3)nc1 (centres unmarked) [Example 152, 6-(3-(3-hydroxy-3-(quinolin-5-yl)cyclobutane-1-carbonyl)-3,8-diazabicyclo[3.2.1]octan-8-yl)nicotinonitrile] | 5.00 to 6.00 |
| N#Cc1ccc(N2[C@@H]3CC[C@H]2CN(C(=O)CCNC2(c4ccccc4)CC2)C3)nc1 [Example 2, 6-(3-(3-((1-phenylcyclopropyl)amino)propanoyl)-3,8-diazabicyclo[3.2.1]octan-8-yl)nicotinonitrile] | 6.00 to 7.00 |

| Structure (SMILES) | pIC50 |
| --- | --- |
| N#Cc1ccc(N2C3CCC2CN(C(=O)COC(c2ccc(F)c(F)c2)C(F)F)C3)nc1 (racemic) [Example 201, 6-(3-(2-(1-(3,4-difluorophenyl)-2,2-difluoroethoxy)acetyl)-3,8-diazabicyclo[3.2.1]octan-8-yl)nicotinonitrile] | 7.00 to 8.00 |
| COc1cc(C(F)(F)C2CC2C(=O)N2CC3CCC(C2)N3c2ccc(C#N)cn2)ccn1 (racemic) [Example 166, 6-(3-(2-(difluoro(2-methoxypyridin-4-yl)methyl)cyclopropane-1-carbonyl)-3,8-diazabicyclo[3.2.1]octan-8-yl)nicotinonitrile] | 5.00 to 6.00 |
| COc1ccc(Br)c(C2(OCC(=O)N3CC4CCC(C3)N4c3ccc(C#N)cn3)CC2)c1 [Example 226, 6-(3-(2-(1-(2-bromo-5-methoxyphenyl)cyclopropoxy)acetyl)-3,8-diazabicyclo[3.2.1]octan-8-yl)nicotinonitrile] | > 8.00 |
| COc1cc(C2(NCC(=O)N3CC4CCC(C3)N4c3ccc(C#N)cn3)CC2)ccc1F [Example 109, 6-(3-((1-(4-fluoro-3-methoxyphenyl)cyclopropyl)glycyl)-3,8-diazabicyclo[3.2.1]octan-8-yl)nicotinonitrile] | > 8.00 |
| Cn1c(C2(OCC(=O)N3CC4CCC(C3)N4c3ccc(C#N)cn3)CCC2)cccc1=O [Example 299, 6-(3-(2-(1-(1-methyl-6-oxo-1,6-dihydropyridin-2-yl)cyclobutoxy)acetyl)-3,8-diazabicyclo[3.2.1]octan-8-yl)nicotinonitrile] | 7.00 to 8.00 |
| N#Cc1ccc(N2C3CCC2CN(C(=O)COC2(c4cncc(O)c4)CCC2)C3)nc1 [Example 313, 6-(3-(2-(1-(5-hydroxypyridin-3-yl)cyclobutoxy)acetyl)-3,8-diazabicyclo[3.2.1]octan-8-yl)nicotinonitrile] | > 8.00 |
| N#Cc1ccc(N2[C@@H]3CC[C@H]2CN(C(=O)/C=C/C(F)(F)c2cccn4ncnc24)C3)nc1 [Example 146, 6-(3-((E)-4-([1,2,4]triazolo[1,5-a]pyridin-8-yl)-4,4-difluorobut-2-enoyl)-3,8-diazabicyclo[3.2.1]octan-8-yl)nicotinonitrile] | > 8.00 |
| N#Cc1ccc(N2[C@@H]3CC[C@H]2CN(C(=O)CCNC2(c4ccc(F)c(F)c4)CC2)C3)cn1 [Example 46, 5-(3-(3-((1-(3,4-difluorophenyl)cyclopropyl)amino)propanoyl)-3,8-diazabicyclo[3.2.1]octan-8-yl)picolinonitrile] | > 8.00 |
| N#Cc1ccc(N2C3CCC2CN(C(=O)COC2(c4ccccc4F)CCC2)C3)nc1 [Example 236, 6-(3-(2-(1-(2-fluorophenyl)cyclobutoxy)acetyl)-3,8-diazabicyclo[3.2.1]octan-8-yl)nicotinonitrile] | 6.00 to 7.00 |
| N#Cc1ccc(N2[C@@H]3CC[C@H]2CN(C(=O)CCNC2(c4ccc(F)cc4)CC2)C3)nc1 [Example 5, 6-(3-(3-((1-(4-fluorophenyl)cyclopropyl)amino)propanoyl)-3,8-diazabicyclo[3.2.1]octan-8-yl)nicotinonitrile] | 7.00 to 8.00 |
| N#Cc1ccc(N2C3CCC2CN(C(=O)COCC2(c4ccncc4)CC2)C3)nc1 [Example 189, 6-(3-(2-((1-(pyridin-4-yl)cyclopropyl)methoxy)acetyl)-3,8-diazabicyclo[3.2.1]octan-8-yl)nicotinonitrile] | 5.00 to 6.00 |
| N#Cc1ccc(N2C3CCC2CN(C(=O)COC2(c4ccc(F)cc4C#N)CC2)C3)nc1 [Example 297, 6-(3-(2-(1-(2-cyano-4-fluorophenyl)cyclopropoxy)acetyl)-3,8-diazabicyclo[3.2.1]octan-8-yl)nicotinonitrile] | 7.00 to 8.00 |
| COc1c(F)cccc1C1(NCC(=O)N2CC3CCC(C2)N3c2ccc(C#N)cn2)CC1 [Example 77, 6-(3-((1-(3-fluoro-2-methoxyphenyl)cyclopropyl)glycyl)-3,8-diazabicyclo[3.2.1]octan-8-yl)nicotinonitrile] | > 8.00 |
| CC(OCC(=O)N1CC2CCC(C1)N2c1ccc(C#N)cn1)c1cccc2ncnn12 (racemic) [Example 191, 6-(3-(2-(1-([1,2,4]triazolo[1,5-a]pyridin-5-yl)ethoxy)acetyl)-3,8-diazabicyclo[3.2.1]octan-8-yl)nicotinonitrile] | 7.00 to 8.00 |
| C[C@H](NCCC(=O)N1C[C@H]2CC[C@@H](C1)N2c1ccc(C#N)cn1)c1ccc(F)cc1 [Example 6, 6-(3-(3-(((S)-1-(4-fluorophenyl)ethyl)amino)propanoyl)-3,8-diazabicyclo[3.2.1]octan-8-yl)nicotinonitrile] | 5.00 to 6.00 |
| N#Cc1ccc(C2(NCCC(=O)N3CC4CCC(C3)N4c3ccc(C#N)cn3)CC2)cc1 [Example 14, 6-(3-(3-((1-(4-cyanophenyl)cyclopropyl)amino)propanoyl)-3,8-diazabicyclo[3.2.1]octan-8-yl)nicotinonitrile] | 5.00 to 6.00 |

Source: patent US12565501B2, “Muscarinic acetylcholine M1 receptor antagonists” (Contineum Therapeutics, Inc., priority 2019, dated 2026)
